Assay [1] relates to S. aureus clinical strain 043SC (MRSA). On the set-up: method as in earlier work. As to conditions: clinical isolate 043SC (MRSA), skin of patient with furuncle folliculitis; cited from earlier work.
For assay [2], the system named is S. aureus clinical strain 031S. Further details: method as in earlier work. As to conditions: clinical isolate 031S, skin; cited from earlier work.
In assay [3] the test system is S. aureus clinical strain 060S. On the set-up: method as in earlier work. As to conditions: clinical isolate 060S, skin; cited from earlier work.
The test system of assay [4] is S. aureus clinical strain 015N (MRSA). On the set-up: method as in earlier work. As to conditions: clinical isolate 015N (MRSA), nasal swab; cited from earlier work.
The test system of assay [5] is S. aureus clinical strain 030N. Further details: method as in earlier work. As to conditions: clinical isolate 030N, nasal swab; cited from earlier work.
In assay [6] the test system is S. aureus clinical strain 005S. On the set-up: method as in earlier work. Particulars: clinical isolate 005S, skin; cited from earlier work.
For assay [7], the system named is S. aureus clinical strain 004N (MRSA). Further details: method as in earlier work. As to conditions: clinical isolate 004N (MRSA), nasal swab; cited from earlier work.
Assay [8] deals with S. aureus clinical strain 009S. On the set-up: method as in earlier work. As to conditions: clinical isolate 009S, skin; cited from earlier work.
In assay [9] the test system is S. aureus ATCC 33591 (MRSA). The experiment in a line: microbe, parasite or virus in culture. Particulars: Staphylococcus aureus, ATCC33591|MRSA. From the text: (§1) Clinical S. aureus strains were collected from patients with atopic dermatitis during their visits to the Outpatient Clinic and hospitalization in the Department of Dermatology, Venereology and Allergology at Medical University of Gdańsk (following the approval from the ethics committee, Approval Number NKBBN/242–477/2014). Reference strains of S. aureus ATCC 25923, S. aureus ATCC 33591, S. aureus ATCC 9144, and S. aureus ATCC 12598 were obtained from the American Type Culture Collection. All the strains were stored at − 80 °C in Roti®-Store cryo vials (Carl Roth GmbH, Karlsruhe, Germany) and before the tests were transferred into fresh Mueller–Hinton Medium (BioMaxima, Lublin, Poland) and incubated for 24 h at 37 °C. Subsequently, each bacterial inoculum was seeded on Mueller–Hinton agar plates (BioMaxima) and incubated again for 24 h. The cultures prepared in this way were used in further antimicrobial assays. Minimum inhibitory concentrations (MICs) were determined according to the Clinical and Laboratory Standards Institute recommendations. […] The experiments were conducted on 96-well microtiter plates, with a final volume of 100 μL. Additionally, in the case of daptomycin, the medium was supplemented with Ca^2+ (50 mg/L). Cell densities were adjusted spectrophotometrically (Multiskan™ GO Microplate Spectrophotometer, Thermo Scientific) at 600 nm. The MICs were taken as the lowest drug concentration at which a visible growth of the microorganisms was inhibited. Minimum biofilm eliminating concentrations (MBECs) were determined on 96-well flat-bottomed microtiter polystyrene plates with resazurin (7-hydroxy-3H-phenoxazin-3-one 10-oxide sodium salt) as a cell viability reagent. To do this, the plates were filled with 100 μL of the initial inoculums of bacteria (0.5 × 10^7 CFU/mL) in the Mueller–Hinton broth and incubated for 24 h at 37 °C. […] After 24 h of incubation, 20 μL of resazurin (4 mg/mL) was added to each well and the MBEC values were read. Minimum biofilm inhibitory concentrations (MBICs) were also determined on 96-well flat-bottomed microtiter polystyrene plates as described previously. To do this, 50 μL of the compounds in the concentration range, diluted MHB, were prepared. Subsequently, the 50 μL of the staphylococcal inoculums were added to reach the same density of bacteria as that in the MBEC assay. After 24 h of incubation at 37 °C, the wells were rinsed three times with PBS and the fresh medium (100 μL) with resazurin (0.6 mg/mL) was added. Then, after 1 h of incubation, MBICs were read. […] All experiments were conducted in triplicate.
(§2) Formation of the biofilm inside the PDMS flow chambers was performed using three peristaltic pumps working simultaneously (LP-pump, Kamush, Lipopharm, Poland) and sterile Tygon® 3350 silicone hoses (2.4 × 0.8 × 0.8 mm) with a length of 30 and 50 cm for inlet and outlet, respectively. Bacterial suspensions were prepared (0.5 × 10^7 CFU/mL) in sterile 50-mL test tubes, which were placed in a heating block at 37 °C. Before experiments, all channels were assessed for tightness and sterilized using a 70% 2-propanol solution (10 min, flow rate 1 mL/min) and rinsed with sterile PBS solution (10 min, flow 0.1 mL/min). The formation of biofilm inside the channels was divided into three stages: (1) adhesion—at this stage S. aureus suspensions were passed through the channels for 4 h at a flow rate of 0.1 mL/min; (2) rinsing—the previously used hoses were replaced with new sterile ones, and the channels were rinsed with sterile PBS solution for 10 min at a flow rate of 0.1 mL/min; (3) biofilm growth—after flushing the channels, the silicone hoses were placed in tubes with MHB medium, which was passed through the channels for 24 h at a flow rate of 0.1 mL/min. All experiments included growth and sterility controls.
(§3) This assay was conducted also on the S. aureus ATCC 25923 and S. aureus 33,591 (MRSA) strains.

In a further assay the test system is S. aureus ATCC 25923. The experiment in a line: microbe, parasite or virus in culture. As to conditions: Staphylococcus aureus.
Text: as §1, §2, §3

Assay [10] has as its system S. aureus clinical strain 051N (MRSA). Further details: method as in earlier work. Particulars: clinical isolate 051N (MRSA), nasal swab; cited from earlier work.
Where [11] appears, read: 0 h, S. aureus ATCC 33591 (MRSA), time 0 h (baseline, before peptide exposure).
The mark [12] stands for this setting: 24 h, S. aureus ATCC 33591 (MRSA) biofilm treated under flow with Omiganan (half MBEC) for 24 h.
Where [13] appears, read: 24 h, S. aureus ATCC 33591 (MRSA) biofilm treated under flow with Retro-Omiganan (half MBEC) for 24 h.
Where [14] appears, read: 48 h, S. aureus ATCC 33591 (MRSA) biofilm treated under flow with Omiganan (half MBEC) for 48 h.
Where [15] appears, read: 48 h, S. aureus ATCC 33591 (MRSA) biofilm treated under flow with Retro-Omiganan (half MBEC) for 48 h.
Where [16] appears, read: 72 h, S. aureus ATCC 33591 (MRSA) biofilm treated under flow with Omiganan (half MBEC) for 72 h.
[17] abbreviates: 72 h, S. aureus ATCC 33591 (MRSA) biofilm treated under flow with Retro-Omiganan (half MBEC) for 72 h.
[18] abbreviates: ATCC25923, 0 h, S. aureus 25923, time 0 h (baseline, before peptide exposure).
[19] abbreviates: ATCC25923, 24 h, S. aureus 25923 biofilm treated under flow with Omiganan (half MBEC) for 24 h.
Setting [20] is: ATCC25923, 24 h, S. aureus 25923 biofilm treated under flow with Retro-Omiganan (half MBEC) for 24 h.
Setting [21] is: ATCC25923, 48 h, S. aureus 25923 biofilm treated under flow with Omiganan (half MBEC) for 48 h.
The mark [22] stands for this setting: ATCC25923, 48 h, S. aureus 25923 biofilm treated under flow with Retro-Omiganan (half MBEC) for 48 h.
Setting [23] is: ATCC25923, 72 h, S. aureus 25923 biofilm treated under flow with Omiganan (half MBEC) for 72 h.
Setting [24] is: ATCC25923, 72 h, S. aureus 25923 biofilm treated under flow with Retro-Omiganan (half MBEC) for 72 h.

Values after ≈ are worked out from the molar mass of the structure shown.

For `CN(C)[C@@H]1C(O)=C(C(N)=O)C(=O)[C@@]2(O)C(O)=C3C(=O)c4c(O)cccc4[C@@](C)(O)[C@H]3C[C@@H]12` [Tetracycline], the “Antimicrobial susceptibility (MIC)” value in [1] is listed as 32 µg/mL; in [2], 0.25 µg/mL; in assay [3], 0.125 µg/mL; in assay [4] it was 0.5 µg/mL; in assay [5] it was 0.5 µg/mL; in assay [6] it was 0.5 µg/mL. In addition, the figures for the “Antimicrobial susceptibility (MIC)” value in [7], in [8] and in [10] were 0.5 µg/mL, 1 µg/mL and 0.25 µg/mL, respectively. In addition, the MIC in assay [9] (setting [11]), in assay [9] (setting [12]), in assay [9] (setting [13]), in [9] (setting [14]), in assay [9] (setting [15]) and in assay [9] (setting [16]) was 64 µg/mL (≈ 144 µM) in each case. For the same molecule, the MIC in [9] (setting [17]) was 64 µg/mL (≈ 144 µM); in the assay on S. aureus ATCC 25923 (setting [18]) it was ≤ 0.25 µg/mL; with S. aureus ATCC 25923 (setting [19]), ≤ 0.25 µg/mL; in the assay on S. aureus ATCC 25923 (setting [20]), ≤ 0.25 µg/mL; in the assay with S. aureus ATCC 25923 (setting [21]) it was ≤ 0.25 µg/mL; with S. aureus ATCC 25923 (setting [22]), ≤ 0.25 µg/mL. For the same molecule, the MIC against S. aureus ATCC 25923 (setting [23]) and in the assay with S. aureus ATCC 25923 (setting [24]) was ≤ 0.25 µg/mL each time.
Regarding `CN[C@H](CC(C)C)C(=O)N[C@H]1C(=O)N[C@@H](CC(N)=O)C(=O)N[C@H]2C(=O)N[C@H]3C(=O)N[C@H](C(=O)N[C@H](C(=O)O)c4cc(O)cc(O)c4-c4cc3ccc4O)[C@H](O)c3ccc(c(Cl)c3)Oc3cc2cc(c3O[C@@H]2O[C@H](CO)[C@@H](O)[C@H](O)[C@H]2O[C@H]2C[C@](C)(N)[C@H](O)[C@H](C)O2)Oc2ccc(cc2Cl)[C@H]1O` [Vancomycin], the “Antimicrobial susceptibility (MIC)” value in assay [1] was 0.5 µg/mL; in [2] it was 0.25 µg/mL; in [3] it was 0.5 µg/mL; in assay [4], 1 µg/mL; in [5], 2 µg/mL; in assay [6], 0.125 µg/mL. Moreover, the “Antimicrobial susceptibility (MIC)” value is recorded as 0.5 µg/mL in assay [7], 0.25 µg/mL in assay [8] and 0.5 µg/mL in assay [10]. The MIC in [9] (setting [11]), in assay [9] (setting [12]), in assay [9] (setting [13]), in assay [9] (setting [14]), in assay [9] (setting [15]) and in assay [9] (setting [16]) was 1 µg/mL (≈ 0.69 µM) in each case. Moreover, the MIC (in assay [9] (setting [17]); with S. aureus ATCC 25923 (setting [18]); in the assay with S. aureus ATCC 25923 (setting [19]); in the assay on S. aureus ATCC 25923 (setting [20]); in the assay with S. aureus ATCC 25923 (setting [21]); against S. aureus ATCC 25923 (setting [22])) was 1 µg/mL (≈ 0.69 µM) each time. For the same molecule, the MIC with S. aureus ATCC 25923 (setting [23]) and with S. aureus ATCC 25923 (setting [24]) was 1 µg/mL (≈ 0.69 µM) in each case.

The values are drawn from paper PMC12055641, “The Study of Antistaphylococcal Potential of Omiganan and Retro-Omiganan Under Flow Conditions” (Probiotics and Antimicrobial Proteins, 2024).
